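Cells were grown in 96-well plates and exposed to each compound for 48 hours at five concentrations; endpoints were interpolated linearly between bracketing concentrations, or set to the highest concentration if not reached. GI50 = concentration required for 50% inhibition of growth.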 The source made the active and inactive calls. Cut-off read from the data, not from the text of the source: active = GI50 up to about 1.1 µM and inactive = higher.
Experiments:
Assay in all cases: inhibition of tumour cell growth, NCI panel, 48 h
SN12C = tested on: SN12C
UACC-257 = tested on: UACC-257
SF-295 = tested on: SF-295
MDA-MB-435 = tested on: MDA-MB-435
IGROV-1 = tested on: IGROV-1
NCI-H226 = tested on: NCI-H226
HCC 2998 = tested on: HCC 2998
HCT-15 = tested on: HCT-15
NCI-H23 = tested on: NCI-H23
OVCAR-3 = tested on: OVCAR-3
TK-10 = tested on: TK-10
OVCAR-5 = tested on: OVCAR-5
NCI/ADR-RES = tested on: NCI/ADR-RES
MCF7 = tested on: MCF7
T47D = tested on: T47D
786-0 = tested on: 786-0
SNB-75 = tested on: SNB-75
A549 = tested on: A549
KM12 = tested on: KM12
HL-60 = tested on: HL-60

| Compound | GI50 (SN12C) | GI50 (UACC-257) | GI50 (SF-295) | GI50 (MDA-MB-435) | GI50 (IGROV-1) | GI50 (NCI-H226) | GI50 (HCC 2998) | GI50 (HCT-15) [µM] | GI50 (NCI-H23) | GI50 (OVCAR-3) | GI50 (TK-10) | GI50 (OVCAR-5) | GI50 (NCI/ADR-RES) | GI50 (MCF7) | GI50 (T47D) | GI50 (786-0) | GI50 (SNB-75) | GI50 (A549) | GI50 (KM12) | GI50 (HL-60) |
| --- | --- | --- | --- | --- | --- | --- | --- | --- | --- | --- | --- | --- | --- | --- | --- | --- | --- | --- | --- | --- |
| CCCCCCCCCCCC(=O)OC[C@@H](C[As](=O)(O)O)OC(=O)CCCCCCCCCCC | 7 µM (inactive) | 16.4 µM (inactive) | 13.2 µM (inactive) | 3.85 µM (inactive) | 1.85 µM (inactive) | 16.4 µM (inactive) | 7.57 µM (inactive) | 9.04 | 5.69 µM (inactive) | 4.19 µM (inactive) | 11.6 µM (inactive) | 16.3 µM (inactive) | 17.3 µM (inactive) | 2.8 µM (inactive) | 12.6 µM (inactive) | 13.4 µM (inactive) | 3.82 µM (inactive) | 14.2 µM (inactive) | 5.02 µM (inactive) | 2.95 µM (inactive) |
| C=C(C)[C@@H]1CC[C@]2(C)CC[C@]3(C)[C@H](CC[C@@H]4[C@@]5(C)CC[C@H](OC(=O)c6ccccc6)C(C)(C)[C@@H]5CC[C@]43C)[C@@H]12 | > 100 µM (inactive) | > 100 µM (inactive) | > 100 µM (inactive) | > 100 µM (inactive) | > 100 µM (inactive) | > 100 µM (inactive) | > 100 µM (inactive) | > 100 | > 100 µM (inactive) | > 100 µM (inactive) | > 100 µM (inactive) | > 100 µM (inactive) | > 100 µM (inactive) | > 100 µM (inactive) | > 100 µM (inactive) | > 100 µM (inactive) | 90.8 µM (inactive) | > 100 µM (inactive) | > 100 µM (inactive) | > 100 µM (inactive) |
| O=[N+]([O-])/C(Cl)=C(\NCCO)C(Cl)=C(Cl)Cl | 43 µM (inactive) | > 100 µM (inactive) | > 100 µM (inactive) | 55.8 µM (inactive) | > 100 µM (inactive) | > 100 µM (inactive) | > 100 µM (inactive) | 30.8 | 72.1 µM (inactive) | 60.4 µM (inactive) | > 89.3 µM (inactive) | > 100 µM (inactive) | 61.1 µM (inactive) | 52 µM (inactive) | 57.7 µM (inactive) | 45 µM (inactive) | > 80.2 µM (inactive) | > 100 µM (inactive) | > 89.1 µM (inactive) | 4.35 µM (inactive) |
| CNc1nc(=O)c(C#N)c(-c2ccc(C)cc2)s1 | > 100 µM (inactive) | > 100 µM (inactive) | > 100 µM (inactive) | > 100 µM (inactive) | > 100 µM (inactive) | > 100 µM (inactive) | > 100 µM (inactive) | > 100 | > 100 µM (inactive) | > 100 µM (inactive) | > 100 µM (inactive) | > 100 µM (inactive) | > 100 µM (inactive) | > 100 µM (inactive) | > 100 µM (inactive) | > 100 µM (inactive) | > 100 µM (inactive) | > 100 µM (inactive) | > 100 µM (inactive) | 53.7 µM (inactive) |
| COc1ccc(/C=C2/N/C(=N\N=C/C(O)C(O)C(O)C(O)CO)NC2=O)cc1 (stereo not given) | > 100 µM (inactive) | > 100 µM (inactive) | > 100 µM (inactive) | > 100 µM (inactive) | > 100 µM (inactive) | > 100 µM (inactive) | > 100 µM (inactive) | > 100 | > 100 µM (inactive) | > 100 µM (inactive) | > 100 µM (inactive) | > 100 µM (inactive) | > 100 µM (inactive) | 40.1 µM (inactive) | 62.1 µM (inactive) | > 100 µM (inactive) | > 100 µM (inactive) | > 100 µM (inactive) | > 100 µM (inactive) | 33 µM (inactive) |
| O=C1NC(c2cccc(OCc3ccccc3)c2)Nc2ccccc21 (stereo not given) | 0.119 µM (active) | 1.36 µM (inactive) | 0.114 µM (active) | 0.023 µM (active) | 0.5 µM (active) | 0.274 µM (active) | 0.243 µM (active) | 0.0805 | 0.424 µM (active) | 0.1 µM (active) | 0.603 µM (active) | 0.374 µM (active) | 0.117 µM (active) | 0.034 µM (active) | 19.1 µM (inactive) | 0.286 µM (active) | 0.0703 µM (active) | 0.13 µM (active) | 17.5 µM (inactive) | < 0.0184 µM (active) |
| C/C(=N/NC(=S)Nc1cccc(Cl)c1)c1cccc(/C(C)=N\NC(=S)Nc2cccc(Cl)c2)n1 | 3.48 µM (inactive) | 4.66 µM (inactive) | 1.77 µM (inactive) | 6.87 µM (inactive) | 2.03 µM (inactive) | 0.998 µM (active) | 6.85 µM (inactive) | 2.49 | 3.69 µM (inactive) | 0.379 µM (active) | 2.02 µM (inactive) | 6.43 µM (inactive) | 1.09 µM (active) | 1.99 µM (inactive) | 3.48 µM (inactive) | 0.893 µM (active) | 2.58 µM (inactive) | 2.96 µM (inactive) | 3.52 µM (inactive) | 1.22 µM (inactive) |
| COCOc1cc(OCOC)cc(C(=O)Oc2ccccc2)c1 | > 100 µM (inactive) | > 100 µM (inactive) | > 100 µM (inactive) | > 100 µM (inactive) | > 100 µM (inactive) | > 100 µM (inactive) | > 100 µM (inactive) | > 100 | > 100 µM (inactive) | > 100 µM (inactive) | > 100 µM (inactive) | > 100 µM (inactive) | > 100 µM (inactive) | > 100 µM (inactive) | 57.4 µM (inactive) | > 100 µM (inactive) | 78.3 µM (inactive) | > 100 µM (inactive) | > 100 µM (inactive) | > 100 µM (inactive) |
| N#CCCC(C=O)(CCC#N)CCC#N | > 100 µM (inactive) | > 100 µM (inactive) | > 100 µM (inactive) | > 100 µM (inactive) | > 100 µM (inactive) | > 100 µM (inactive) | > 100 µM (inactive) | > 100 | > 100 µM (inactive) | > 100 µM (inactive) | > 100 µM (inactive) | > 100 µM (inactive) | > 100 µM (inactive) | > 100 µM (inactive) | > 100 µM (inactive) | > 100 µM (inactive) | > 100 µM (inactive) | > 100 µM (inactive) | > 100 µM (inactive) | > 100 µM (inactive) |
| C=C1c2nc3ccccc3n2C=C(c2ccc(C)cc2)N1c1ccc(OC)cc1 | > 94.4 µM (inactive) | > 89.1 µM (inactive) | 33.7 µM (inactive) | 3.04 µM (inactive) | > 83 µM (inactive) | 27.9 µM (inactive) | 31.8 µM (inactive) | 9.51 | > 73.6 µM (inactive) | 46.8 µM (inactive) | > 83.4 µM (inactive) | > 100 µM (inactive) | 14.9 µM (inactive) | 15.3 µM (inactive) | 26.2 µM (inactive) | > 100 µM (inactive) | > 80 µM (inactive) | 47.5 µM (inactive) | 5.56 µM (inactive) | 8.34 µM (inactive) |
| Cc1ccsc1/C=N/Nc1ncccn1 | > 100 µM (inactive) | > 100 µM (inactive) | > 100 µM (inactive) | > 100 µM (inactive) | > 100 µM (inactive) | > 100 µM (inactive) | > 100 µM (inactive) | > 100 | > 100 µM (inactive) | > 100 µM (inactive) | > 100 µM (inactive) | > 100 µM (inactive) | > 100 µM (inactive) | 0.741 µM (active) | > 100 µM (inactive) | > 100 µM (inactive) | > 100 µM (inactive) | > 100 µM (inactive) | 32.4 µM (inactive) | > 100 µM (inactive) |
| CC(=O)C1(O)CCC2(O)C3(O)CC=C4CC(O)CCC4(C)C3CC(OC(=O)c3ccc(O)cc3)C12C (stereo not given) | > 100 µM (inactive) | > 100 µM (inactive) | > 100 µM (inactive) | > 100 µM (inactive) | > 100 µM (inactive) | 80.2 µM (inactive) | > 100 µM (inactive) | > 100 | > 100 µM (inactive) | > 100 µM (inactive) | > 100 µM (inactive) | > 100 µM (inactive) | > 100 µM (inactive) | > 100 µM (inactive) | > 100 µM (inactive) | > 100 µM (inactive) | > 100 µM (inactive) | > 100 µM (inactive) | > 100 µM (inactive) | > 100 µM (inactive) |
| COc1c(O)cc2oc(-c3ccc(O)cc3)cc(=O)c2c1O [HISPIDULIN] | 39.4 µM (inactive) | > 100 µM (inactive) | 44.1 µM (inactive) | 36.3 µM (inactive) | 22.7 µM (inactive) | 77.6 µM (inactive) | 28.7 µM (inactive) | 38.7 | 42.2 µM (inactive) | 44.1 µM (inactive) | 39.2 µM (inactive) | 75.2 µM (inactive) | 36.1 µM (inactive) | 52 µM (inactive) | 33.4 µM (inactive) | 60.1 µM (inactive) | 17.3 µM (inactive) | 35.5 µM (inactive) | 31.5 µM (inactive) | 24.5 µM (inactive) |
| COC(=O)C(CBr)CBr | 3.9 µM (inactive) | 5.58 µM (inactive) | 16.2 µM (inactive) | 3.33 µM (inactive) | 10.4 µM (inactive) | 13.3 µM (inactive) | 4.49 µM (inactive) | 1.71 | 6.78 µM (inactive) | 2.65 µM (inactive) | 4.79 µM (inactive) | 16.8 µM (inactive) | 3.1 µM (inactive) | 4.46 µM (inactive) | 2.5 µM (inactive) | 4.52 µM (inactive) | 16.3 µM (inactive) | 18.2 µM (inactive) | 8.04 µM (inactive) | 0.253 µM (active) |

Source: ChEMBL document CHEMBL1201862, “PubChem BioAssay data set” (2004)
